Values of other authors in patent publication US8501405B2, “Real-time sequencing methods and systems” (Pacific Biosciences of California, Inc., priority 2009, dated 2013).
Read-outs that look alike come from different tables or passages of the source.

B1: Thermus thermophilus: DNA polymerase with reverse transcriptase activity (protein, UniProt P52028 1-834, looked up)
DNA polymerase I, thermostable: MEAMLPLFEPKGRVLLVDGHHLAYRTFFALKGLTTSRGEPVQAVYGFAKSLLKALKEDGYKAVFVVFDAKAPSFRHEAYEAYKAGRAPTPEDFPRQLALIKELVDLLGFTRLEVPGYEADDVLATLAKKAEKEGYEVRILTADRDLYQLVSDRVAVLHPEGHLITPEWLWEKYGLRPEQWVDFRALVGDPSDNLPGVKGIGEKTALKLLKEWGSLENLLKNLDRVKPENVREKIKAHLEDLRLSLELSRVRTDLPLEVDLAQGREPDREGLRAFLERLEFGSLLHEFGLLEAPAPLEEAPWPPPEGAFVGFVLSRPEPMWAELKALAACRDGRVHRAADPLAGLKDLKEVRGLLAKDLAVLASREGLDLVPGDDPMLLAYLLDPSNTTPEGVARRYGGEWTEDAAHRALLSERLHRNLLKRLEGEEKLLWLYHEVEKPLSRVLAHMEATGVRLDVAYLQALSLELAEEIRRLEEEVFRLAGHPFNLNSRDQLERVLFDELRLPALGKTQKTGKRSTSAAVLEALREAHPIVEKILQHRELTKLKNTYVDPLPSLVHPRTGRLHTRFNQTATATGRLSSSDPNLQNIPVRTPLGQRIRRAFVAEAGWALVALDYSQIELRVLAHLSGDENLIRVFQEGKDIHTQTASWMFGVPPEAVDPLMRRAAKTVNFGVLYGMSAHRLSQELAIPYEEAVAFIERYFQSFPKVRAWIEKTLEEGRKRGYVETLFGRRRYVPDLNARVKSVREAAERMAFNMPVQGTAADLMKLAMVKLFPRLREMGARMLLQVHDELLLEAPQARAEEVAALAKEAMEKAYPLAVPLEVEVGMGEDWLSAKG
B2: phi6: RNA-dependent RNA polymerase (protein, UniProt P11124 2-665, looked up)
RNA-directed RNA polymerase: PRRAPAFPLSDIKAQMLFANNIKAQQASKRSFKEGAIETYEGLLSVDPRFLSFKNELSRYLTDHFPANVDEYGRVYGNGVRTNFFGMRHMNGFPMIPATWPLASNLKKRADADLADGPVSERDNLLFRAAVRLMFSDLEPVPLKIRKGSSTCIPYFSNDMGTKIEIAERALEKAEEAGNLMLQGKFDDAYQLHQMGGAYYVVYRAQSTDAITLDPKTGKFVSKDRMVADFEYAVTGGEQGSLFAASKDASRLKEQYGIDVPDGFFCERRRTAMGGPFALNAPIMAVAQPVRNKIYSKYAYTFHHTTRLNKEEKVKEWSLCVATDVSDHDTFWPGWLRDLICDELLNMGYAPWWVKLFETSLKLPVYVGAPAPEQGHTLLGDPSNPDLEVGLSSGQGATDLMGTLLMSITYLVMQLDHTAPHLNSRIKDMPSACRFLDSYWQGHEEIRQISKSDDAILGWTKGRALVGGHRLFEMLKEGKVNPSPYMKISYEHGGAFLGDILLYDSRREPGSAIFVGNINSMLNNQFSPEYGVQSGVRDRSKRKRPFPGLAWASMKDTYGACPIYSDVLEAIERCWWNAFGESYRAYREDMLKRDTLELSRYVASMARQAGLAELTPIDLEVLADPNKLQYKWTEADVSANIHEVLMHGVSVEKTERFLRSVMPR

What was measured:
[1] = not given; remark: listed apart in the source
[2] = not given; remark: listed apart in the source
[3] = DNA polymerases with reverse transcriptase activity; available values for DNA-dependent DNA polymerization
[4] = DNA polymerases with reverse transcriptase activity, available values for DNA-dependent DNA polymerization
[5] = reverse transcriptases and RNA-dependent RNA polymerases, * wild-type or published mutants

Row | Molecule | Processivity (bases) [4] | Maximum speed (bases/s) [1, 4] [bases/s] | Strand-displacement DNA synthesis [2, 4] | Activity with phospholinked nucleotides [3] | Processivity (bases) [5] | Maximum speed (bases/s) [1, 5] [bases/s] | Strand-displacement DNA synthesis ([2]; reverse transcriptases and RNA-dependent RNA polymerases)
1 | E. coli pol I: DNA polymerase with reverse transcriptase activity | ~50 bases | 17 | yes (degrades |  |  |  | 
2 | phi29: DNA polymerase with reverse transcriptase activity | >70,000 bases | 100 | yes | yes |  |  | 
3 | B1 | 300 bases | 120 |  |  |  |  | 
4 | B2 |  |  |  |  | 13,500 bases | 120 | yes
